Assay results reported in patent publication US12421257B2, “Compositions and methods for inhibiting group II intron RNA” (YALE UNIVERSITY, priority 2018, dated 2025).
In brackets after ≈: the same amount, converted by molar mass.

Key:
[1] = tested on: ai5γ group II intron (D135 ribozyme); assay: Fluorescent D135 ribozyme cleavage assay (IC50); assay type: biochemical, Saccharomyces cerevisiae; conditions: for IC50: D135 ribozyme cleavage of substrate 17/2 DL, 100 mM MgCl2, 500 mM KCl, 37° C., 10 minutes; for In vitro inhibitory activity, SAR statement (in words): relative to parent scaffold
Procedure: The D135 ribozyme (Su et al., 2005, Nucleic Acids Res, 33:6674-6687), fluorescently labeled oligo substrate 17/2 DL (FIG. 1A-FIG. 1D) (both at 20 nM final concentrations in 50 mM MOPS, pH 7.0, 100 mM MgCl2, 0.5M KCl), and the test compounds (final concentration of 10 μM in 50 mM MOPS, pH 7.0, 100 mM MgCl2, 0.5M KCl) were aliquoted onto black non-binding 384-well plates (Corning 3757) using the multidrop combi (ThermoFisherScientific) and pintool (V & P Scientific). The reaction mixtures were incubated at 37° C. for 45 minutes, then the reaction was quenched with 100 mM EDTA and fluorescence intensity was analyzed on a Tecan Infinite multimode plate reader (λex 520 nm, λem 560 nm, 5 nm bandwidth). Data were normalized to untreated wells and wells lacking the D135 ribozyme, and percent of inhibition was calculated using ActivityBase (IDBS). The Z′-factor was calculated as described (Zhang et al., 1999, J Biomol Screen, 4:67-73): Z′=1−3×(σp+σn)/|μp−μn|, • where μp and σn are mean value and standard deviation for the positive control (substrate only), and where μn and σn are mean value and standard deviation for the negative control (no compound). The average Z′-factor from the screen was 0.83±0.03. IC50 Measurement for the Small Molecule Inhibition of the D135 Ribozyme Cleavage Reaction.
Black 96-well plates (Corning 3695) were filled with 50 μl of solution containing 20 nM D135 ribozyme, 20 nM double-labeled substrate 17/2 DL and small molecule inhibitor in 50 mM MOPS, pH 7.0, 100 mM MgCl2 and 500 mM KCl. Small molecule inhibitors were tested at 19 different concentrations ranging from 5 nM to 1 mM. Plates were incubated at 37° C. for 10 minutes, then reaction mixtures were quenched with 100 mM EDTA and analyzed on the Synergy H1 plate reader (BioTek). Each experiment was performed in triplicate. Data were fit to a 4-parameter logistic function c+(d−c)/(1+(x/a)^b), where a is the IC50, b is the slope parameter, c is the minimum response and d is the maximum response. Data are reported as average±s.e.m

[2] = tested on: C. parapsilosis; assay: MIC determination against C. parapsilosis; assay type: cell-based, Candida parapsilosis; conditions: RPMI-1640, 35° C. or 37° C., turbidity after 24 and 48 hours; for MIC: Lodderomyces parapsilosis
Procedure: Minimal inhibitory concentrations (MICs) for C. parapsilosis were determined in a final volume of 100 μl. Fresh stock solutions of control antifungal drugs (Amphotericin B and Itraconazole) and of test compounds were prepared at 3.2 mg/ml and at 12.8 mg/ml respectively in DMSO. After placing the stock in the first well, solutions of test compounds and antifungal controls were serially diluted 1:2 with DMSO into the first […] successive wells of a 12-well row on a 96-well plate (as described above). After dilution, 2.5 μl from each of these 10 wells were transferred onto a separate 96-well plate and diluted with 122.5 μl of RPMI-1640 medium (Sigma). Wells 11 and 12 contained 2.5 μl DMSO and 122.5 μl of RPMI-1640 as a positive growth control (no compound) and sterility control (no inoculum added). A 50 μl volume was taken from each of the RPMI dilutions (wells 1-12) and transferred to the wells of a third 96-well plate (assay plate), where they were mixed with an equal volume (50 μl) of freshly prepared inoculum of C. parapsilosis in RPMI-1640 medium, set at a density to provide the 0.5×10^3 to 2.5×10^3 colony forming units per 1 mL (except for the sterility control). Sterility control was mixed with 50 μl of sterile medium.
The final concentration range of the assay was 0.25-128 μg/ml for test compounds and 0.0625-32 μg/ml for Amphotericin B and Itraconazole. The final concentration of DMSO was 1%. The assay plate was incubated at 35° C. or 37° C. and visually analyzed for turbidity after 24 and 48 hours of incubation. The lowest compound concentration at which no growth was apparent is reported as the MIC. All experiments were performed in triplicate.

[3] = target: ai5γ group II intron; assay: Radioanalytic self-splicing assay of SE RNA (Ki); assay type: biochemical, Saccharomyces cerevisiae; conditions: 8 mM MgCl2, 100 mM KCl, pH 7.5, 30° C.
Procedure: Internally labeled SE RNA (2 nM) was incubated with various concentrations of inhibitor compound under near-physiological conditions (in 50 mM MOPS, pH 7.5, 8 mM MgCl2, 100 mM KCl) at 30° C. Aliquots at different time points were quenched and analyzed on 5% denaturing polyacrylamide gel as previously described (Daniels et al., 1996, Journal of molecular biology, 256:31-49). Data were fit to a single-exponential equation to determine the first order rate constants (kobs). The latter were then plotted against the concentration of the inhibitor and fit to the equation for non-competitive inhibition to determine Ki values: kobs=kmax/(1+[I]/Ki), where kobs and kmax are the first order rate constants measured in the presence and in the absence of the inhibitor, respectively, [I] is the concentration of the inhibitor and Ki is the inhibition constant. Experiments were performed four times for API-014, three times for APY-090, Intronistat A, and Intronistat B and twice for the remaining compounds to ensure reproducibility. Data represent average±s.e.m.

[4] = tested on: HEK-293T cells; assay: Cytotoxicity in HEK-293T cells (Cell Titer Glo); assay type: cell-based, human; conditions: Homo sapiens, cytotoxicity, 24 hours with compound, read-out: IC50 HEK-293
Procedure: HEK-293T cells were cultured in Dulbecco's Modified Eagle's Medium (DMEM) (Gibco) supplemented with 10% Fetal Bovine Serum (FBS, Gibco) and 100 U/ml of Penicillin-Streptomycin (Gibco) at 37° C. and 5% CO2. For the cytotoxicity experiments, cells were aliquoted into black 96-well plates with a clear bottom (Corning 3603) at a concentration of 10,000 cells per well. The cells were grown at 37° C., 5% CO2 for 5-6 hours, then the medium was replaced with the same medium without FBS and cells were grown at 37° C., 5% CO2 for 24 hours. Freshly prepared stock solutions of test compounds (12.8 mg/ml in DMSO) were serially diluted 1:2 with DMSO into the first 11 successive wells of a 12-well row on a 96-well plate as described above. Well 12 was used as a growth control (no compound). […] After incubation, cell viability was determined using the luminescent Cell Titer Glo cell viability assay (Promega), in which 100 μl of the assay reagent was added to each well of the assay plate. After gentle shaking for 7-10 minutes, the plates were analyzed on a Synergy H1 plate reader (BioTek). Luminescence was plotted against the compound concentration and IC50 values were determined by fitting the data to a 4-parameter logistic function c+(d−c)/(1+(x/a)^b), where a is the IC50, b is the slope parameter, c is the minimum response and d is the maximum response. Experiments were replicated to ensure reproducibility.

[5] = tested on: S. cerevisiae; assay: Yeast respiration assay in S. cerevisiae (MIC in YPD / YPGE); assay type: cell-based, Saccharomyces cerevisiae; conditions: 30° C.
Procedure: Yeast respiration assays were conducted either in liquid YPD media (BD Bacto Yeast Extract, BD Bacto Peptone, 2% glucose) or in YPGE media (BD Bacto Yeast Extract, BD Bacto Peptone, 3% glycerol, 3% ethanol), essentially as described for the antifungal MIC assays (see below). To initiate these experiments, 100 μl of a fresh stock solution was prepared for each compound (3.2 mg/ml for Amphotericin B and 12.8 mg/ml for each test compounds) in DMSO. This concentrated stock solution was placed in the first well of 12-well row on a 96-well plate. The subsequent nine wells in this row contained 50 μl of DMSO for serial dilution. From the first well, 50 μl of the compound stock was withdrawn, transferred to the second well and mixed. This process was repeated from the second and subsequent wells, resulting in a 1:2 serial dilution of the stock into DMSO. Wells 11 and 12 contained DMSO only, to be used as no compound control and sterility control, with no inoculum added, respectively. After preparing this plate, 2.5 μl from each of the 12 wells was transferred to the wells of a separate 96-well plate, each of which contained 122.5 μl of YPD or YPGE medium, resulting in a set of serial dilutions of compound into growth media in a volume of 125 μl. Then 50 μl from each of these dilutions were transferred onto a third 96-well plate (the assay plate) and mixed with an equal volume (50 μl) of freshly prepared yeast inoculum in YPD or YPGE medium set to provide 0.5×10^3 to 2.5×10^3 colony forming units per 1 mL (wells 1-11), or YPD/YPGE alone (sterility control, well 12). The final compound concentration range of the assay was 0.25-128 μg/ml for test compounds and 0.0625-32 μg/ml for Amphotericin B. The final concentration of DMSO was 1%. Plates were incubated at 30° C. and visually analyzed for turbidity after 24 and 48 hours of incubation. The lowest compound concentration at which no growth was apparent is reported as the MIC (Table 1). All experiments were performed in triplicate.

Compound | IC50 [1] [µM] | MIC [2] [µg/mL] | Ki [3] [µM] | MIC in YPD (glucose) ([5]; YPD medium) [µg/mL] | MIC in YPGE (glycerol) ([5]; YPGE medium) [µg/mL] | MIC C. parapsilosis [2] [µg/mL] | IC50 [4] [µg/mL] | In vitro inhibitory activity, SAR statement (in words) [1]
COc1ccc(CNC(=O)c2cc(O)c(O)c(O)c2)cc1OC [APY-077, N-[(3,4-Dimethoxyphenyl)methyl]-3,4,5-trihydroxybenzamide] | 30 ± 4 | 64 (≈ 200 µM) | 44 ± 11 |  |  |  | > 32 | substantial loss of activity
C[C@H](NC(=O)c1cc(O)c(O)c(O)c1)c1cccc2ccccc12 [APY-079] | 20 | 32 (≈ 99 µM) | 32 |  |  |  | 4.6 | 
O=C(c1cc(O)c(O)c(O)c1)c1cc2cc(Cl)cc(Cl)c2o1 [APY-083, 5-[(5,7-Dichloro-1-benzofuran-2-yl)carbonyl]benzene-1,2,3-triol] | 3.3 ± 0.3 | 8 (≈ 23.6 µM) | 0.9 ± 0.1 |  |  |  | 0.5 ± 0.1 | without significant loss of function
O=C(c1cc(O)c(O)c(O)c1)c1cc2cc(-c3ccc(C(F)(F)F)nc3)ccc2o1 [APY-097, 5-({5-[6-(Trifluoromethyl)pyridin-3-yl]-1-benzofuran-2-yl}carbonyl)benzene-1,2,3-triol] | 2.8 ± 0.2 | 8 (≈ 19.3 µM) | 3.9 ± 0.5 |  |  |  | 5.4 ± 0.6 | 
O=C(c1cc2cc(-c3ccc(CO)cc3)ccc2o1)c1ccc(B(O)O)cc1F [APY-098, [3-Fluoro-4-({5-[4-(hydroxymethyl)phenyl]-1-benzofuran-2-yl}carbonyl)phenyl]boronic acid] | > 1000 | > 128 | > 1000 |  |  |  | 11 ± 3 | nearly complete loss of activity
CCN(CC)CCNC(=O)c1ccc2oc(C(=O)c3cc(O)c(O)c(O)c3)cc2c1 [NED-2019, N-(2-(diethylamino)ethyl)-2-(3,4,5-trihydroxybenzoyl)-benzofuran-5-carboxamide] | 4.8 ± 0.5 | 8 (≈ 19.4 µM) | 0.49 ± 0.03 |  |  |  | > 64 | 

Further lines, with some results ahead:

IC50 [1] [µM] | MIC [2] [µg/mL] | Ki [3] [µM] | MIC in YPD (glucose) ([5]; YPD medium) [µg/mL] | MIC in YPGE (glycerol) ([5]; YPGE medium) [µg/mL] | MIC C. parapsilosis [2] [µg/mL] | Compound | IC50 [4] [µg/mL] | In vitro inhibitory activity, SAR statement (in words) [1]
8 | 16 (≈ 51.9 µM) | 5.4 |  |  |  | O=C(CCc1ccc2ccccc2c1)c1cc(O)c(O)c(O)c1 [APY-076] | 7 | 
27 | 64 (≈ 192 µM) | 16 |  |  |  | COc1ccc(CCNC(=O)c2cc(O)c(O)c(O)c2)cc1OC [APY-078] | > 128 | 
2.4 ± 0.4 | 8 (≈ 18 µM) | 4.5 ± 0.9 |  |  |  | CCN(CC)C(=O)c1ccc(-c2ccc3oc(C(=O)c4cc(O)c(O)c(O)c4)cc3c2)cc1 [APY-091, N,N-Diethyl-4-{2-[(3,4,5-trihydroxyphenyl)carbonyl]-1-benzofuran-5-yl}benzamide] | 5.35 ± 0.05 | 
 |  |  | 2 (≈ 2.16 µM) | 16 (≈ 17.3 µM) | 0.5 to 1 | C[C@@H]1[C@H](O)[C@@H](C)/C=C/C=C/C=C/C=C/C=C/C=C/C=C/[C@H](O[C@@H]2O[C@H](C)[C@@H](O)[C@H](N)[C@@H]2O)C[C@@H]2O[C@](O)(C[C@@H](O)C[C@@H](O)[C@H](O)CC[C@@H](O)C[C@@H](O)CC(=O)O[C@H]1C)C[C@H](O)[C@H]2C(=O)O [Amphotericin B, reference compound] |  | 
7.3 | 32 (≈ 101 µM) | 8 |  |  |  | COc1cccc(/C=N/NC(=O)c2cc(O)c(O)c(O)c2)c1O [Compound 2] | 34 | 
9 ± 4 | 16 (≈ 41.6 µM) | 0.62 ± 0.03 |  |  |  | CN(C)CCNC(=O)c1ccc2oc(C(=O)c3cc(O)c(O)c(O)c3)cc2c1 [NED-2018, N-(2-(dimethylamino)ethyl)-2-(3,4,5-trihydroxybenzoyl)-benzofuran-5-carboxamide] | > 128 | 
2.7 ± 0.5 | 32 (≈ 76.7 µM) | 1.7 |  |  |  | O=C(N/N=C/c1ccc(-c2ccc(Br)cc2)o1)c1cc(O)c(O)c(O)c1 [NED-2038, (E)-N′-((5-(4-bromophenyl)furan-2-yl)methylene)-3,4,5-trihydroxybenzohydrazide] | 1.1 | 
